Tested on: Erwinia amylovora (Ea) strain AFRS-581
Assay: Fireblight blossom infection on potted 'Rome' apple trees inoculated with Erwinia amylovora, greenhouse
Format: in vivo
Details: 'Rome' apple blossoms sprayed with 10^8 CFU Ea, treated about 1 hour later, scored after 7 days; PM 3% weight by volume; copper hydroxide 0.5 g/l; Blight Ban 1 g/l; streptomycin 0.5 g/l
Procedure: The enhanced effect of reducing fireblight in apple trees with the pesticide delivery system of the present invention containing bactericides is examined and compared to conventional pesticides.
Experiments are conducted on potted trees of ‘Rome’ apple in a naturally illuminated greenhouse. When about 80% of the blooms are open, open blossoms are sprayed to drip with 10^8 CFU of Erwinia amylovora (Ea) strain AFRS-581. After drying for about 1 hour, each the following treatments are applied to six of the infected trees. Slurries containing particulate materials (PM) (3% weight by volume), water and copper hydroxide at 0.5 g/l (Copper Count N from Mineral Research Development Co., Charlotte, N.C., a bactericide), Blight Ban at 1 g/l (from Plant Health Technologies, Boise, Id., a microbial bactericide), or streptomycin at 0.5 g/l (from Novartis Crop Protection Inc., Greensboro, N.C., an antibiotic); and slurries containing PM (3% weight by volume) and water; and mixtures of water and copper hydroxide at 0.5 g/l, Blight Ban at 1 g/l, or streptomycin at 0.5 g/l are applied to the apple trees. […]
After 7 days, blossom necrosis symptoms are present and recorded. Disease data are expressed as percentage of blossom infect rate.

Structure (SMILES)	% Blossom Infection [%]
[H]/N=C(/N)N[C@H]1[C@H](O)[C@@H](O)[C@H](O[C@@H]2O[C@@H](C)[C@](O)(C=O)[C@H]2O[C@@H]2O[C@@H](CO)[C@H](O)[C@@H](O)[C@@H]2NC)[C@@H](N/C(N)=N\[H])[C@@H]1O [streptomycin]	83.3
[Cu+2].[OH-].[OH-] [copper hydroxide]	87.1

Reference: patent US7018643B2, “Pesticide delivery system” (Engelhard Corporation, priority 2000, dated 2006)
